Reference: US10028482B2, “Disinfecting and deodorizing compositions and methods with novel polymeric binding system” (priority 2014, dated 2018)

Key:
[1] = Retention of chlorine in air dried coatings on soft surface substrates (iodometric titration); format: physicochemical
Description: The purpose of this experiment was to measure the beneficial effect of binder plus SHA on retention of chlorine in air dried coatings of N-halamine formulations on a soft surface substrate. Solutions of MCDMH, MCDMH plus hydroxyethylcellulose binder plus SHA, each containing equivalent amounts of oxidative Cl were applied to 9 cm^2 of soft surface substrate (cotton fabrics or paper), and allowed to air dry at room temperature in a chemical fume hood. Determinations of chlorine per cm^2 were made on fabrics sampled after 4 hours, 24 hours, 48 hours, and 96 hours. The remaining chlorine was measured by iodometric titration after soaking of test samples in deionized water for 1 hour at room temperature.

[2] = Retention of chlorine in air dried coatings on hard surface substrate (iodometric titration); format: physicochemical; conditions: Formica coupons
Procedure: The purpose of this experiment was to measure the effect of binder plus SHA on retention of chlorine in air dried coatings of water-based N-halamine formulations on a hard surface substrate. The procedure used one gram of MCDMH with or without 0.2 grams of hydroxyethylcellulose binder and 0.1 grams of SHA dissolved in 100 ml of water as the surface treatments. Solutions of MCDMH, MCDMH plus binder and SHA containing equivalent amounts of oxidative chlorine were applied to 9 cm^2 of hard surface substrate (Formica coupons), and allowed to dry at room temperature in a chemical fume hood. Determinations of chlorine levels per cm^2 were made on coupons sampled after 4 hours, 24 hours, 48 hours, and 96 hours. The chlorine remaining on each surface was measured by iodometric titration of solutions obtained after soaking of test samples in deionized water for 1 hour at room temperature.

CC1(C)NC(=O)N(Cl)C1=O [MCDMH]
Chlorine Content ([1]; Cotton, 4 h): 2.41 ×10^18 Cl/cm^2
Chlorine Content ([1]; Cotton, 24 h): 2.04 ×10^18 Cl/cm^2
Chlorine Content ([1]; Cotton, 48 h): 1.56 ×10^18 Cl/cm^2
Chlorine Content ([1]; Cotton, 96 h): 0.89 ×10^18 Cl/cm^2
Chlorine Content ([1]; Paper, 4 h): 2.74 ×10^18 Cl/cm^2
Chlorine Content ([1]; Paper, 24 h): 2.12 ×10^18 Cl/cm^2
Chlorine Content ([1]; Paper, 48 h): 1.87 ×10^18 Cl/cm^2
Chlorine Content ([1]; Paper, 96 h): 1.04 ×10^18 Cl/cm^2
Chlorine Content ([2]; 4 h): 3.61 ×10^18 Cl/cm^2
Chlorine Content ([2]; 24 h): 3.25 ×10^18 Cl/cm^2
Chlorine Content ([2]; 48 h): 3.01 ×10^18 Cl/cm^2
Chlorine Content ([2]; 96 h): 2.75 ×10^18 Cl/cm^2
